Assay results: patent publication US11091478B2 (Fochon Pharmaceuticals, Ltd., priority 2017, dated 2021)

Columns and labels:
[1] = tested on: RS4;11 cells; assay: Cell proliferation assay (MTS), RS4;11 cells, 72 h; type: cell-based; conditions: Homo sapiens, RS4-11, 72 h
In short: (§1)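 Proliferation was scored by MTS (2 h, then SDS stop, A490 with 650 nm reference) and IC50 derived. Compound ran at nine final concentrations from 1.5 to 10000 nM. DOHH2 were incubated 120 h and RS4;11 72 h, both plated at 5000 cells/well in RPMI-1640 plus 10% FBS.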

[2] = tested on: DOHH2 cells; assay: Cell proliferation assay (MTS), DOHH2 cells, 120 h; type: cell-based; conditions: Homo sapiens, DOHH-2, 120 h
In short: as §1

SMILES	IC50 [1] [nM]	IC50 [2] [nM]
CC1(C)CCC(CN2CCN(c3ccc(C(=O)NS(=O)(=O)c4cc5c(c([N+](=O)[O-])c4)N[C@@H](CCN4CCN(C6COC6)CC4)CO5)c(Oc4cnc5[nH]ccc5c4)c3)CC2)=C(c2ccc(Cl)cc2)C1 [Example 2-48, (S)-2-((1H-pyrrolo[2,3-b]pyridin-5-yl)oxy)-4-(4-((4′-chloro-5,5-dimethyl-3,4,5,6-tetra-hydro-[1,1′-biphenyl]-2-yl)methyl)piperazin-1-yl)-N-((5-nitro-3-(2-(4-(oxetan-3-yl)piper-azin-1-yl)ethyl)-3,4-dihydro-2H-benzo [b][1,4]oxazin-7-yl)sulfonyl)benzamide]	14	9
C[C@H]1CN(CC[C@H]2COc3cc(S(=O)(=O)NC(=O)c4ccc(N5CCN(CC6=C(c7ccc(Cl)cc7)CC(C)(C)CC6)CC5)cc4Oc4cnc5[nH]ccc5c4)cc([N+](=O)[O-])c3N2)CCO1 [Example 2-51]	10	13
C[C@@H]1CN(CC[C@H]2COc3cc(S(=O)(=O)NC(=O)c4ccc(N5CCN(CC6=C(c7ccc(Cl)cc7)CC(C)(C)CC6)CC5)cc4Oc4cnc5[nH]ccc5c4)cc([N+](=O)[O-])c3N2)CCO1 [Example 2-52, 2-((1H-pyrrolo[2,3-b]pyridin-5-yl)oxy)-4-(4-((4′-chloro-5,5-dimethyl-3,4,5,6-tetrahydro-[1,1′-biphenyl]-2-yl)methyl)piperazin-1-yl)-N-(((S)-3-(2-((R)-2-methylmorpholino)ethyl)-5-nitro-3,4-dihydro-2H-benzo[b][1,4]oxazin-7-yl)sulfonyl)benzamide]	25	31
CC1(C)CCC(CN2CCN(c3ccc(C(=O)NS(=O)(=O)c4cc5c(c([N+](=O)[O-])c4)N[C@@H](CNC(=O)C4CCOCC4)CO5)c(Oc4cnc5[nH]ccc5c4)c3)CC2)=C(c2ccc(Cl)cc2)C1 [Example 2-54, (S)-N-((7-(N-(2-((1H-pyrrolo[2,3-b]pyridin-5-yl)oxy)-4-(4-((4′-chloro-5,5-dimethyl-3,4,5,6-tetrahydro-[1,1′-biphenyl]-2-yl)methyl)piperazin-1-yl)benzoyl)sulfamoyl)-5-nitro-3,4-dihydro-2H-benzo[b][1,4]oxa-zin-3-yl)meth-yl)tetrahydro-2H-pyran-4-carboxamide]	61	134
CC1(C)CCC(CN2CCN(c3ccc(C(=O)NS(=O)(=O)c4cc5c(c([N+](=O)[O-])c4)N[C@@H](CNC(=O)OC4CCOCC4)CO5)c(Oc4cnc5[nH]ccc5c4)c3)CC2)=C(c2ccc(Cl)cc2)C1 [Example 2-61, tetrahydro-2H-pyran-4-yl (S)-((7-(N-(2-((1H-pyrrolo[2,3-b]pyridin-5-yl)oxy)-4-(4-((4′-chloro-5,5-dimethyl-3,4,5,6-tetrahydro-[1,1′-biphenyl]-2-yl)methyl)piperazin-1-yl)benzoyl)sulfamoyl)-5-nitro-3,4-dihydro-2H-benzo[b][1,4]oxazin-3-yl)methyl)carbamate]	48	444
COC(=O)NCC[C@@H]1COc2cc(S(=O)(=O)NC(=O)c3ccc(N4CCN(CC5=C(c6ccc(Cl)cc6)CC(C)(C)CC5)CC4)cc3Oc3cnc4[nH]ccc4c3)cc([N+](=O)[O-])c2N1 [Example 2-63, methyl (R)-(2-(7-(N-(2-((1H-pyrrolo[2,3-b]pyridin-5-yl)oxy)-4-(4-((4′-chloro-5,5-dimethyl-3,4,5,6-tetrahydro-[1,1′-biphenyl]-2-yl)methyl)piperazin-1-yl)benzoyl)sulfamoyl)-5-nitro-3,4-dihydro-2H-benzo[b][1,4]oxazin-3-yl)ethyl)carbamate]	12	64
CC1(C)CCC(CN2CCN(c3ccc(C(=O)NS(=O)(=O)c4cc5c(c([N+](=O)[O-])c4)N[C@H](CCS(C)(=O)=O)CO5)c(Oc4cnc5[nH]ccc5c4)c3)CC2)=C(c2ccc(Cl)cc2)C1 [Example 2-64, (R)-2-((1H-pyrrolo[2,3-b]pyriidn-5-yl)oxy)-4-(4-((4′-chloro-5,5-dimethyl-3,4,5,6-tetra-hydro-[1,1′-biphenyl]-2-yl)methyl)piperazin-1-yl)-N-((3-(2-(methylsulfonyl)ethyl)-5-nitro-3,4-dihydro-2H-benzo[b][1,4]oxazin-7-yl)sulfonyl)benzamide]	25	70
COCC[C@@H]1COc2cc(S(=O)(=O)NC(=O)c3ccc(N4CCN(CC5=C(c6ccc(Cl)cc6)CC(C)(C)CC5)CC4)cc3Oc3cnc4[nH]ccc4c3)cc([N+](=O)[O-])c2N1 [Example 2-65, (R)-2-((1H-pyrrolo[2,3-b]pyridin-5-yl)oxy)-4-(4-((4′-chloro-5,5-dimethyl-3,4,5,6-tetra-hydro-[1,1′-biphenyl]-2-yl)methyl)piperazin-1-yl)-N-((3-(2-methoxyethyl)-5-nitro-3,4-dihydro-2H-benzo[b][1,4]oxazin-7-yl)sulfonyl)benzamide]	20	14
CC1(C)CCC(CN2CCN(c3ccc(C(=O)NS(=O)(=O)c4cc5c(c([N+](=O)[O-])c4)N[C@H](CCNS(C)(=O)=O)CO5)c(Oc4cnc5[nH]ccc5c4)c3)CC2)=C(c2ccc(Cl)cc2)C1 [Example 2-68, (R)-2-((1H-pyrrolo[2,3-b]pyridin-5-yl)oxy)-4-(4-((4′-chloro-5,5-dimethyl-3,4,5,6-tetra-hydro-[1,1′-biphenyl]-2-yl)methyl)piperazin-1-yl)-N-((3-(2-(methysulfonamido)ethyl)-5-nitro-3,4-dihydro-2H-benzo[b][1,4]oxa-zin-7-yl)sulfonyl)benzamide]	26	83
CC1(C)CCC(CN2CCN(c3ccc(C(=O)NS(=O)(=O)c4cc5c(c([N+](=O)[O-])c4)N[C@H](CN=S(C)(C)=O)CO5)c(Oc4cnc5[nH]ccc5c4)c3)CC2)=C(c2ccc(Cl)cc2)C1 [Example 2-70, (R)-2-((1H-pyrrolo[2,3-b]pyridin-5-yl)oxy)-4-(4-((4′-chloro-5,5-dimethyl-3,4,5,6-tetra-hydro-[1,1′-biphenyl]-2-yl)methyl)piperazin-1-yl)-N-((3-(((dimethyl(oxo)-λ^6-sulfanyl-idene)amino)methyl)-5-nitro-3,4-dihydro-2H-benzo[b][1,4]oxazin-7-yl)sulfonyl)benza-mide]	5	28

Further lines, with some results ahead:

IC50 [1] [nM]	SMILES	IC50 [2] [nM]
16	C[C@@H]1CN(CC[C@H]2COc3cc(S(=O)(=O)NC(=O)c4ccc(N5CCN(CC6=C(c7ccc(Cl)cc7)CC(C)(C)CC6)CC5)cc4Oc4cnc5[nH]ccc5c4)cc([N+](=O)[O-])c3N2)CCN1C1COC1 [Example 2-49, 2-((1H-pyrrolo[2,3-b]pyridin-5-yl)oxy)-4-(4-((4′-chloro-5,5-dimethyl-3,4,5,6-tetrahydro-[1,1′-biphenyl]-2-yl)methyl)piperazin-1-yl)-N-(((S)-3-(2-((R)-3-methyl-4-(oxetan-3-yl)piperazin-1-yl)ethyl)-5-nitro-3,4-dihydro-2H-benzo[b][1,4]oxazin-7-yl)sulfonyl) benzamide]	12
9	C[C@H]1CN(CC[C@H]2COc3cc(S(=O)(=O)NC(=O)c4ccc(N5CCN(CC6=C(c7ccc(Cl)cc7)CC(C)(C)CC6)CC5)cc4Oc4cnc5[nH]ccc5c4)cc([N+](=O)[O-])c3N2)CCN1C1COC1 [Example 2-50]	22
53	CC(=O)NC[C@H]1COc2cc(S(=O)(=O)NC(=O)c3ccc(N4CCN(CC5=C(c6ccc(Cl)cc6)CC(C)(C)CC5)CC4)cc3Oc3cnc4[nH]ccc4c3)cc([N+](=O)[O-])c2N1 [Example 2-53, (S)-2-((1H-pyrrolo[2,3-b]pyridin-5-yl)oxy)-N-((3-(acetamidomethyl)-5-nitro-3,4-dihydro-2H-benzo[b][1,4]oxazin-7-yl)sulfonyl)-4-(4-((4′-chloro-5,5-dimethyl-3,4,5,6-tetra-hydro-[1,1′-biphenyl]-2-yl)methyl)piperazin-1-yl)benzamide]	543
41	CC1(C)CCC(CN2CCN(c3ccc(C(=O)NS(=O)(=O)c4cc5c(c([N+](=O)[O-])c4)N[C@@H](CCNC(=O)C4CCOCC4)CO5)c(Oc4cnc5[nH]ccc5c4)c3)CC2)=C(c2ccc(Cl)cc2)C1 [Example 2-56, (S)-N-(2-(7-(N-(2-((1H-pyrrolo[2,3-b]pyridin-5-yl)oxy)-4-(4-((4′-chloro-5,5-dimethyl-3,4,5,6-tetrahydro-[1,1′-biphenyl]-2-yl)meth-yl)piperazin-1-yl)benzoyl)sulfamoyl)-5-nitro-3,4-dihydro-2H-benzo[b][1,4]oxazin-3-yl)ethyl)tetrahydro-2H-pyran-4-carboxamide]	571
1	COC(=O)NC[C@H]1COc2cc(S(=O)(=O)NC(=O)c3ccc(N4CCN(CC5=C(c6ccc(Cl)cc6)CC(C)(C)CC5)CC4)cc3Oc3cnc4[nH]ccc4c3)cc([N+](=O)[O-])c2N1 [Example 2-60, methyl (S)-((7-(N-(2-((1H-pyrrolo[2,3-b]pyridin-5-yl)oxy)-4-(4-((4′-chloro-5,5-dimethyl-3,4,5,6-tetrahydro-[1,1′-biphenyl]-2-yl)methyl)piperazin-1-yl)benzoyl)sulfamoyl)-5-nitro-3,4-dihydro-2H-benzo[b][1,4]oxazin-3-yl)meth-yl)carbamate]	82
18	CC1(C)CCC(CN2CCN(c3ccc(C(=O)NS(=O)(=O)c4cc5c(c([N+](=O)[O-])c4)N[C@@H](CNS(C)(=O)=O)CO5)c(Oc4cnc5[nH]ccc5c4)c3)CC2)=C(c2ccc(Cl)cc2)C1 [Example 2-66, (S)-2-((1H-pyrrolo[2,3-b]pyridin-5-yl)oxy)-4-(4-((4′-chloro-5,5-dimethyl-3,4,5,6-tetra-hydro-[1,1′-biphenyl]-2-yl)methyl)piperazin-1-yl)-N-((3-(methylsulfonamidomethyl)-5-nitro-3,4-dihydro-2H-benzo[b][1,4]oxazin-7-yl)sulfonyl)benzamide]	13
